Experimental data published in ChEMBL document CHEMBL1201862, “PubChem BioAssay data set” (2004).
Counter-ions that a name gives are not always drawn.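 Protocol summary: plate cells (96-well), add compound at 5 concentrations, incubate 48 h, interpolate endpoints linearly. The concentration for 50% growth inhibition is given as GI50.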 Activity calls are given as the source filed them. No stated cut-off is given here; in the data, active = GI50 up to about 1.1 µM and inactive = higher.

Key:
Experiment in all cases: DTP human tumour cell line panel, 48 h
[1] = system: CAKI-1
[2] = system: A498
[3] = system: OVCAR-4
[4] = system: HOP-62
[5] = system: OVCAR-8
[6] = system: NCI-H23
[7] = system: KM12
[8] = system: DU-145
[9] = system: SK-MEL-28
[10] = system: SW-620
[11] = system: Malme-3M
[12] = system: ACHN
[13] = system: SK-MEL-2
[14] = system: A549
[15] = system: U-251
[16] = system: RXF 393
[17] = system: SF-268
[18] = system: MDA-MB-231
[19] = system: SK-OV-3
[20] = system: OVCAR-3
[21] = system: Hs-578T
[22] = system: NCI-H460
[23] = system: UACC-62
[24] = system: COLO 205
[25] = system: MDA-N
[26] = system: CCRF-CEM
[27] = system: PC-3
[28] = system: HCC 2998
[29] = system: MCF7
[30] = system: SF-539
[31] = system: HCT-15
[32] = system: UACC-257
[33] = system: SNB-19
[34] = system: UO-31
[35] = system: SN12C
[36] = system: RPMI-8226
[37] = system: OVCAR-5
[38] = system: LOX IMVI
[39] = system: M14
[40] = system: EKVX
[41] = system: SF-295
[42] = system: MDA-MB-435
[43] = system: SNB-75
[44] = system: HT-29
[45] = system: T47D
[46] = system: NCI/ADR-RES
[47] = system: 786-0
[48] = system: HCT-116
[49] = system: BT-549
[50] = system: NCI-H226
[51] = system: K562
[52] = system: IGROV-1
[53] = system: NCI-H522
[54] = system: MOLT-4
[55] = system: SK-MEL-5
[56] = system: HL-60
[57] = system: HOP-92
[58] = system: SR
[59] = system: TK-10

O=[N+]([O-])/C(C(Cl)=C(Cl)Cl)=C(\Nc1cccc2ccccc12)n1nnc2ccccc21
GI50 [1]: > 100 µM (inactive)
GI50 [2]: 33.5 µM (inactive)
GI50 [3]: 33.3 µM (inactive)
GI50 [4]: 32.4 µM (inactive)
GI50 [5]: 73.6 µM (inactive)
GI50 [6]: 37.6 µM (inactive)
GI50 [7]: 30.7 µM (inactive)
GI50 [8]: > 100 µM (inactive)
GI50 [9]: > 100 µM (inactive)
GI50 [10]: 58.5 µM (inactive)
GI50 [11]: 68.5 µM (inactive)
GI50 [12]: > 100 µM (inactive)
GI50 [13]: 38.4 µM (inactive)
GI50 [14]: 77.3 µM (inactive)
GI50 [15]: 33 µM (inactive)
GI50 [16]: 19.1 µM (inactive)
GI50 [17]: 48 µM (inactive)
GI50 [18]: 47.1 µM (inactive)
GI50 [19]: 68.7 µM (inactive)
GI50 [20]: 46.8 µM (inactive)
GI50 [21]: 9.31 µM (inactive)
GI50 [22]: 63.4 µM (inactive)
GI50 [23]: 40.9 µM (inactive)
GI50 [24]: 21.5 µM (inactive)
GI50 [25]: > 100 µM (inactive)
GI50 [26]: 28.9 µM (inactive)
GI50 [27]: 47.1 µM (inactive)
GI50 [28]: > 100 µM (inactive)
GI50 [29]: 41.5 µM (inactive)
GI50 [30]: > 100 µM (inactive)
GI50 [31]: 58.2 µM
GI50 [32]: > 100 µM (inactive)
GI50 [33]: 32.9 µM (inactive)
GI50 [34]: 98.4 µM (inactive)
GI50 [35]: > 100 µM (inactive)
GI50 [36]: 23.3 µM (inactive)
GI50 [37]: 42 µM (inactive)
GI50 [38]: 35.4 µM (inactive)
GI50 [39]: > 100 µM (inactive)
GI50 [40]: > 100 µM (inactive)
GI50 [41]: 32.1 µM (inactive)
GI50 [42]: 53.7 µM (inactive)
GI50 [43]: 86.5 µM (inactive)
GI50 [44]: 63.5 µM (inactive)
GI50 [45]: > 100 µM (inactive)
GI50 [46]: 78.3 µM (inactive)
GI50 [47]: > 100 µM (inactive)
GI50 [48]: 34.1 µM (inactive)
GI50 [49]: 21.7 µM (inactive)
GI50 [50]: 71.3 µM (inactive)

CNCCC=C1c2ccccc2CCc2ccccc21 [NORTRIPTYLINE HYDROCHLORIDE]
GI50 [1]: 13.8 µM (inactive)
GI50 [2]: 15.4 µM (inactive)
GI50 [3]: 14 µM (inactive)
GI50 [4]: 14.7 µM (inactive)
GI50 [5]: 17 µM (inactive)
GI50 [6]: 15.7 µM (inactive)
GI50 [7]: 12.2 µM (inactive)
GI50 [8]: 14.5 µM (inactive)
GI50 [9]: 13.5 µM (inactive)
GI50 [10]: 17.7 µM (inactive)
GI50 [51]: 11.4 µM (inactive)
GI50 [11]: 15.8 µM (inactive)
GI50 [12]: 16.6 µM (inactive)
GI50 [52]: 16.7 µM (inactive)
GI50 [13]: 15.4 µM (inactive)
GI50 [14]: 16.6 µM (inactive)
GI50 [15]: 14.3 µM (inactive)
GI50 [16]: 9.35 µM (inactive)
GI50 [17]: 15.5 µM (inactive)
GI50 [18]: > 37 µM (inactive)
GI50 [19]: 12.6 µM (inactive)
GI50 [20]: 11.4 µM (inactive)
GI50 [53]: 14.6 µM (inactive)
GI50 [21]: 19.6 µM (inactive)
GI50 [22]: 14.8 µM (inactive)
GI50 [23]: 14.8 µM (inactive)
GI50 [54]: 12.1 µM (inactive)
GI50 [55]: 11.6 µM (inactive)
GI50 [24]: 7.62 µM (inactive)
GI50 [25]: 15.6 µM (inactive)
GI50 [26]: 12.5 µM (inactive)
GI50 [27]: 14.3 µM (inactive)
GI50 [29]: 15.7 µM (inactive)
GI50 [30]: 28.5 µM (inactive)
GI50 [31]: 17.1 µM
GI50 [32]: 7.67 µM (inactive)
GI50 [33]: 16.6 µM (inactive)
GI50 [34]: 6.14 µM (inactive)
GI50 [35]: 15.4 µM (inactive)
GI50 [56]: 16.1 µM (inactive)
GI50 [36]: 12.6 µM (inactive)
GI50 [37]: 15.3 µM (inactive)
GI50 [38]: 13.2 µM (inactive)
GI50 [57]: 13.7 µM (inactive)
GI50 [39]: 4.25 µM (inactive)
GI50 [40]: 15.2 µM (inactive)
GI50 [41]: 14.6 µM (inactive)
GI50 [42]: 13.5 µM (inactive)
GI50 [43]: 6.47 µM (inactive)
GI50 [58]: 12.1 µM (inactive)
GI50 [59]: 14.8 µM (inactive)
GI50 [44]: 4.69 µM (inactive)
GI50 [45]: 9.23 µM (inactive)
GI50 [46]: 15.7 µM (inactive)
GI50 [47]: 14.6 µM (inactive)
GI50 [48]: 14.6 µM (inactive)
GI50 [49]: 15.5 µM (inactive)
GI50 [50]: 22.1 µM (inactive)

Cc1ccc(/C=N/Nc2cnccn2)s1
GI50 [1]: > 100 µM (inactive)
GI50 [3]: > 100 µM (inactive)
GI50 [4]: > 100 µM (inactive)
GI50 [5]: > 100 µM (inactive)
GI50 [6]: > 100 µM (inactive)
GI50 [7]: > 100 µM (inactive)
GI50 [9]: > 100 µM (inactive)
GI50 [10]: > 100 µM (inactive)
GI50 [51]: 65.2 µM (inactive)
GI50 [11]: > 100 µM (inactive)
GI50 [12]: > 100 µM (inactive)
GI50 [52]: > 100 µM (inactive)
GI50 [13]: > 100 µM (inactive)
GI50 [14]: > 100 µM (inactive)
GI50 [15]: > 100 µM (inactive)
GI50 [16]: > 100 µM (inactive)
GI50 [17]: > 100 µM (inactive)
GI50 [18]: 96.2 µM (inactive)
GI50 [19]: > 100 µM (inactive)
GI50 [20]: > 100 µM (inactive)
GI50 [53]: 83 µM (inactive)
GI50 [21]: > 100 µM (inactive)
GI50 [23]: > 100 µM (inactive)
GI50 [54]: 65.2 µM (inactive)
GI50 [55]: > 100 µM (inactive)
GI50 [24]: > 100 µM (inactive)
GI50 [25]: 99.3 µM (inactive)
GI50 [26]: > 100 µM (inactive)
GI50 [27]: > 100 µM (inactive)
GI50 [28]: > 100 µM (inactive)
GI50 [29]: 17.4 µM (inactive)
GI50 [30]: > 100 µM (inactive)
GI50 [31]: > 100 µM
GI50 [32]: > 100 µM (inactive)
GI50 [33]: > 100 µM (inactive)
GI50 [34]: > 100 µM (inactive)
GI50 [35]: 42.6 µM (inactive)
GI50 [56]: > 100 µM (inactive)
GI50 [36]: > 100 µM (inactive)
GI50 [37]: > 100 µM (inactive)
GI50 [38]: > 100 µM (inactive)
GI50 [57]: > 100 µM (inactive)
GI50 [39]: > 100 µM (inactive)
GI50 [40]: 80.5 µM (inactive)
GI50 [41]: > 100 µM (inactive)
GI50 [42]: > 100 µM (inactive)
GI50 [43]: > 100 µM (inactive)
GI50 [59]: > 100 µM (inactive)
GI50 [44]: 47.1 µM (inactive)
GI50 [45]: > 100 µM (inactive)
GI50 [46]: > 100 µM (inactive)
GI50 [47]: > 100 µM (inactive)
GI50 [48]: > 100 µM (inactive)
GI50 [49]: > 100 µM (inactive)
GI50 [50]: 38.7 µM (inactive)
